Experiments:
[1] = test system: S. aureus; experiment: Zone of inhibition test on TSA plates; type: cell-based
Procedure: (§1) A zone of inhibition test is conducted on several materials: zinc oxide and amino acid hydrohalide alone and a mixture formed from zinc oxide and amino acid hydrohalide. The method involves making a lawn of freshly prepared bacterial culture on TSA (trypticase soy agar) plates. Sterile filter paper discs are seeded with 20 μl of test sample (supernatant or mixture). Sample-coated filter paper discs are air dried and applied onto the bacterial lawn on TSA plates. Plates are incubated for 20 hours at 37° C.

[2] = test system: C. minutissimum; experiment: Zone of inhibition test on TSA plates; type: cell-based; settings: Table 3, sample type not given
Procedure: as §1
Similar antibacterial efficacy is seen when tetrabasic zinc chloride is used in place of zinc oxide as the source of zinc ions.

[3] = test system: C. xerosis; experiment: Zone of inhibition test on TSA plates; type: cell-based; settings: 20 h 37° C.
Procedure: as §1

[4] = test system: S. epider.; experiment: Zone of inhibition test on TSA plates; type: cell-based; settings: 20 h 37° C.
Procedure: as §1

[5] = Hydrolysis reaction: pH and turbidity of diluted ZLC solutions before and after aging; type: physicochemical; settings: for pH after aging / turbidity after aging (NTU): 37° C. over 5 hours
Procedure: A 185 mg/ml solution of ZLC is prepared and diluted several-fold and aged in a 37° C. oven over 5 hours for turbidity studies. […] Turbidity of the solutions is measured using a nephelometer, results being given in nephelometric turbidity units (NTU).
The precipitates formed in the 8×, 16× and 32× diluted solutions are collected by centrifugation and identified as crystalline ZnO by PXRD. From the supernatant, a single crystal is grown and shown by X-ray diffraction to be Lysine Monohydrochloride Dihydrate (Lysine.HCl.2H2O).

[6] = biological target: Bovine Serum Albumin (BSA) (Bos taurus, UniProt P02769); experiment: Flocculation of ZLC in the presence of protein (BSA): turbidity and pH; type: physicochemical; settings: for observation / pH / Turbidity (NTU): ZLC about 15 mg/ml, 5 hours 37° C.
Procedure: Turbidity and pH of solutions are measured 5 hours after the mixtures were placed in a 37° C. oven, and the results are shown in Table 6.

[7] = Solubilization of zinc: free Zn2+ in supernatant by atomic absorption; type: physicochemical; settings: dispersed in water, equilibrated overnight
Source text: Ingredients are dispersed in water, equilibrated overnight, and the supernatant analyzed for free Zn^2+ by atomic absorption.

[8] = sample 1: DI water, 0% BSA, pH 6.4
[9] = sample 3: 1% BSA, pH adjusted to 5.1

Chain of Bovine Serum Albumin (BSA) (P02769 25-607): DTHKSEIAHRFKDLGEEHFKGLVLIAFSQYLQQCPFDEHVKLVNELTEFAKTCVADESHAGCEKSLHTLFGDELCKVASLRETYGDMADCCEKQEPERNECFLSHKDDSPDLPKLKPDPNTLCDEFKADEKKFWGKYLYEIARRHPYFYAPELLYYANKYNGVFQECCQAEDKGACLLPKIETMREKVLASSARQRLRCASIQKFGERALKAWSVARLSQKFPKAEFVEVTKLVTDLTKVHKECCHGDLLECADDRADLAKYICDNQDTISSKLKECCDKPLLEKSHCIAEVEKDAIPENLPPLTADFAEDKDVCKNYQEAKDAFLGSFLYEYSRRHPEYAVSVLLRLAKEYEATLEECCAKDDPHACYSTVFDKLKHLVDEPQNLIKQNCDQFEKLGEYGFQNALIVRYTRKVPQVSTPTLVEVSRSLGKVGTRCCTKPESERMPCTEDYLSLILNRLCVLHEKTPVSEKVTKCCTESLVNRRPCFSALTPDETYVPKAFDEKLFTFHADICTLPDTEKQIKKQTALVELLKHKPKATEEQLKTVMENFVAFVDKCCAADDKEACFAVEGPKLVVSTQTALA

Compound: [Cl-].[Cl-].[OH-].[OH-].[OH-].[OH-].[OH-].[OH-].[OH-].[OH-].[Zn+2].[Zn+2].[Zn+2].[Zn+2].[Zn+2] [TBZC (4%), Tetrabasic zinc chloride]
- Zone of Inhibition ([1]; Table 3, Mixture): 6 mm
- Zone of Inhibition ([1]; Table 3, Supernat): 6 mm

Compound: N=C(N)NCCC[C@H](N)C(=O)O [Arginine 4%, arginine]
- Zone of Inhibition ([1]; Table 3, sample type not given): 0 mm
- Zone of Inhibition [2]: 0 mm

Compound: NCCCC[C@H](N)C(=O)O [Lysine 4%, lysine]
- Zone of Inhibition ([1]; Table 3, sample type not given): 0 mm
- Zone of Inhibition [2]: 0 mm

Compound: Cl.NCCCC[C@H](N)C(=O)O [Lysine-HCl 23.2%, lysine hydrochloride]
- Zone of Inhibition ([3]; Dry Sample, As is): 0 mm
- Zone of Inhibition ([3]; Wet Sample, As is): 0 mm
- Zone of Inhibition ([1]; Dry Sample, As is, 20 h 37° C.): 0 mm
- Zone of Inhibition ([1]; Table 3, sample type not given): 0 mm
- Zone of Inhibition ([1]; Wet Sample, As is, 20 h 37° C.): 0 mm
- Zone of Inhibition ([4]; Dry Sample, As is): 0 mm
- Zone of Inhibition ([4]; Wet Sample, As is): 0 mm
- Zone of Inhibition [2]: 0 mm

Compound: NCCCCC(N)C(=O)O.NCCCCC(N)C(=O)O.O.O.[Cl-].[Cl-].[Zn+2] (centres unmarked) [ZLC, [Zn(Lysine)2Cl]^+Cl^−.2H2O]
- initial pH ([5]; 5.78 mg/ml): 8
- pH after aging ([5]; 5.78 mg/ml): 8
- turbidity after aging (NTU) ([5]; 5.78 mg/ml): >1000 NTU
- initial pH ([5]; 11.56 mg/ml): 7.8
- pH after aging ([5]; 11.56 mg/ml): 7.8
- turbidity after aging (NTU) ([5]; 11.56 mg/ml): >1000 NTU
- initial pH ([5]; 23.125 mg/ml): 7.7
- initial turbidity (NTU) ([5]; 23.125 mg/ml): 0.7 NTU
- pH after aging ([5]; 23.125 mg/ml): 7.7
- initial pH ([5]; 46.25 mg/ml): 7.4
- initial turbidity (NTU) ([5]; 46.25 mg/ml): 1.5 NTU
- pH after aging ([5]; 46.25 mg/ml): 7.4
- turbidity after aging (NTU) ([5]; 46.25 mg/ml): 2.8 NTU
- initial pH ([5]; 92.5 mg/ml): 7
- initial turbidity (NTU) ([5]; 92.5 mg/ml): 2.8 NTU
- pH after aging ([5]; 92.5 mg/ml): 7
- turbidity after aging (NTU) ([5]; 92.5 mg/ml): 2.6 NTU
- initial pH ([5]; 185 mg/ml): 6.8
- initial turbidity (NTU) ([5]; 185 mg/ml): 4.7 NTU
- pH after aging ([5]; 185 mg/ml): 6.8
- turbidity after aging (NTU) ([5]; 185 mg/ml): 4.1 NTU
- observation as the 185 mg/ml solution is diluted ([5]; diluted several-fold, 37° C.): white precipitate forms
- stability of the complex upon dilution ([5]; precipitates of 8×, 16×, 32× dilutions identified as crystalline ZnO by PXRD, Lysine.HCl.2H2O from supernatant): disassociates upon dilution, with consequent precipitation of zinc oxide
- flocculation of proteins ([6]; proteins such as BSA): ability to flocculate proteins
- observation [6, 8]: slightly cloudy
- pH [6, 8]: 8
- Turbidity (NTU) ([6]; sample 2: 1% BSA, pH 7.2): >1000 NTU
- observation ([6]; sample 2: 1% BSA, pH 7.2): precipitate
- pH ([6]; sample 2: 1% BSA, pH 7.2): 8.2
- Turbidity (NTU) [6, 9]: >1000 NTU
- observation [6, 9]: precipitate
- pH [6, 9]: 8

Compound: [O]=[Zn] [ZnO(4%), zinc oxide]
- Free Zn [7]: 11 ppm
- Zone of Inhibition ([3]; Dry Sample, Mixture): 0 mm
- Zone of Inhibition ([3]; Dry Sample, Supernatant): 0 mm
- Zone of Inhibition ([3]; Wet Sample, Mixture): 0 mm
- Zone of Inhibition ([3]; Wet Sample, Supernatant): 0 mm
- Zone of Inhibition ([1]; Dry Sample, Mixture, 20 h 37° C.): 7 mm
- Zone of Inhibition ([1]; Dry Sample, Supernatant, 20 h 37° C.): 0 mm
- Zone of Inhibition ([1]; Wet Sample, Mixture, 20 h 37° C.): 7 mm
- Zone of Inhibition ([1]; Wet Sample, Supernatant, 20 h 37° C.): 0 mm
- Zone of Inhibition ([4]; Dry Sample, Mixture): 10 mm
- Zone of Inhibition ([4]; Dry Sample, Supernatant): 0 mm
- Zone of Inhibition ([4]; Wet Sample, Mixture): 12 mm
- Zone of Inhibition ([4]; Wet Sample, Supernatant): 0 mm

Reference: patent publication US9925130B2, “Composition with zinc amino acid/trimethylglycine halide precursors” (Colgate-Palmolive Company, priority 2012, dated 2018)
